Tested on: HT-1080 cells
Assay: MTT cytotoxicity assay, HT-1080 fibrosarcoma cells
Format: cell-based, human
Conditions: Homo sapiens, HT-1080, 72 h, 3 days incubation, mean of three independent experiments (± standard deviation)
Experimental: The compounds were tested for their cytotoxic activity on a solid tumor cell line, i.e. HT-1080 originating from a fibrosarcoma (American Type Culture Collection; ATCC, Rockville, MD, USA), and on two leukemia cell lines, i.e. the HL-60 human promyelocytic leukemia (European Collection of Animal Cell Cultures; ECACC, Salisbury, UK) and the K-562 human chronic myelogenous leukemia (ATCC). Furthermore, the human skin fibroblast strain AG01523 (Coriell Institute for Medical Research, Camden, NJ, USA) was also used as normal control. Adherent cells were routinely cultured in Dulbecco’s […] (DMEM), and leukemia cells in RPMI 1640, in an environment of 5% CO2, 85% humidity, and 37 °C. All media were supplemented with penicillin (100 U/ml), streptomycin (100 μg/ml) (media and antibiotics from Biochrom KG, Berlin, Germany), and 10% fetal bovine serum (Life Technologies Europe BV, Thessaloniki, Greece). Adherent cells were subcultured using a trypsin (0.25%; Life Technologies Europe BV)—citrate (0.30%; Sigma, St. Louis, MO, USA) solution. The cytotoxicity assay was performed by a modification of the MTT method. Briefly, the cells were plated in flat-bottomed 96-well microplates at a density of 5000 cells/well, and incubated overnight before the addition of serial dilutions of the test compounds. The cells were incubated with the compounds or the corresponding vehicle (DMSO) concentrations for 3 days. Then, the medium was replaced with MTT (Sigma) in serum-free, phenol-red-free DMEM (1 mg/ml). After incubation for 4 h, the MTT formazan was solubilized in 2-propanol, and the optical density was measured using a FLUOstar Optima (BMG Labtech, Ortenberg, Germany) microplate reader at a wavelength of 550 nm (reference wavelength 660 nm). Doxorubicin hydrochloride (Sigma) was included in the experiments as positive control. The results represent the mean of three independent experiments and are expressed as IC50 [42].

SMILES	IC50 [µM]
O=C1NC(=S)SC1=Cc1ccc(OCc2nc3ccccc3c(=O)n2-c2ccccc2)cc1 [Compound 31, 5-{4-[(3-Phenyl-4-oxo-3,4-dihydroquinazolin-2-yl)methoxy]benzylidene}-2-thioxothiazolidin-4-one]	42.9
O=C1NC(=S)SC1=Cc1ccc(OCc2nc3ccccc3c(=O)n2-c2ccc(F)cc2)cc1 [Compound 32, 5-{4-[(3-(4-Fluorophenyl)-4-oxo-3,4-dihydroquinazolin-2-yl)methoxy]benzylidene}-2-thioxothiazolidin-4-one]	47.3
O=C1NC(=S)SC1=Cc1ccc(OCc2nc3ccccc3c(=O)n2-c2ccc(Cl)cc2)cc1 [Compound 33, 5-{4-[(3-(4-Chlorophenyl)-4-oxo-3,4-dihydroquinazolin-2-yl)methoxy]benzylidene}-2-thioxothiazolidin-4-one]	35.3
O=C1NC(=S)SC1=Cc1ccc(OCc2nc3ccccc3c(=O)n2-c2cccc(Cl)c2)cc1 [Compound 34, 5-{4-[(3-(3-Chlorophenyl)-4-oxo-3,4-dihydroquinazolin-2-yl)methoxy]benzylidene}-2-thioxothiazolidin-4-one]	57.1
O=C1NC(=S)SC1=Cc1ccc(OCc2nc3ccccc3c(=O)n2-c2ccc(Br)cc2)cc1 [Compound 35, 5-{4-[(3-(4-Bromophenyl)-4-oxo-3,4-dihydroquinazolin-2-yl)methoxy]benzylidene}-2-thioxothiazolidin-4-one]	28.8
O=C1NC(=S)SC1=Cc1ccc(OCc2nc3ccccc3c(=O)n2-c2cccc(Br)c2)cc1 [Compound 36, 5-{4-[(3-(3-Bromophenyl)-4-oxo-3,4-dihydroquinazolin-2-yl)methoxy]benzylidene}-2-thioxothiazolidin-4-one]	43.4
Cc1ccc(-n2c(COc3ccc(C=C4SC(=S)NC4=O)cc3)nc3ccccc3c2=O)cc1 [Compound 38, 5-{4-[(3-(4-Methylphenyl)-4-oxo-3,4-dihydroquinazolin-2-yl)methoxy]benzylidene}-2-thioxothiazolidin-4-one]	35.7
Cc1cccc(-n2c(COc3ccc(C=C4SC(=S)NC4=O)cc3)nc3ccccc3c2=O)c1 [Compound 39, 5-{4-[(3-(3-Methylphenyl)-4-oxo-3,4-dihydroquinazolin-2yl)methoxy]benzylidene}-2-thioxothiazolidin-4-one]	47.5
COc1cc(C=C2SC(=S)NC2=O)ccc1OCc1nc2ccccc2c(=O)n1-c1ccccc1 [Compound 41, 5-{4-[(3-Phenyl-4-oxo-3,4-dihydroquinazolin-2-yl)methoxy]-3-methoxybenzylidene}-2-thioxothiazolidin-4-one]	36.1
COc1cc(C=C2SC(=S)NC2=O)ccc1OCc1nc2ccccc2c(=O)n1-c1cccc(Br)c1 [Compound 46, 5-{4-[(3-(3-Bromophenyl)-4-oxo-3,4-dihydroquinazolin-2-yl)methoxy]-3-methoxybenzylidene}-2-thioxothiazolidin-4-one]	23.7
COc1cc(C=C2SC(=S)NC2=O)ccc1OCc1nc2ccccc2c(=O)n1-c1ccc(C)cc1 [Compound 48, 5-{4-[(3-(4-Methylphenyl)-4-oxo-3,4-dihydroquinazolin-2-yl)methoxy]-3-methoxybenzylidene}-2-thioxothiazolidin-4-one]	31.5
COc1cc(C=C2SC(=S)NC2=O)ccc1OCc1nc2ccccc2c(=O)n1-c1cccc(C)c1 [Compound 49, 5-{4-[(3-(3-Methylphenyl)-4-oxo-3,4-dihydroquinazolin-2-yl)methoxy]-3-methoxybenzylidene}-2-thioxothiazolidin-4-one]	30.7
COc1ccc(-n2c(COc3ccc(C=C4SC(=S)NC4=O)cc3OC)nc3ccccc3c2=O)cc1 [Compound 50, 5-{4-[(3-(4-Methoxyphenyl)-4-oxo-3,4-dihydroquinazolin-2-yl)methoxy]-3-methoxybenzylidene}-2-thioxothiazolidin-4-one]	34.7

Tested on: not given
Assay: not given
Conditions: not given

SMILES	melting point
O=C1NC(=S)SC1=Cc1ccc(OCc2nc3ccccc3c(=O)n2-c2ccc(F)cc2)cc1 (hydrate or solvate) [Compound 32, 5-{4-[(3-(4-Fluorophenyl)-4-oxo-3,4-dihydroquinazolin-2-yl)methoxy]benzylidene}-2-thioxothiazolidin-4-one]	231 to 233 °C (dec.)
O=C1NC(=S)SC1=Cc1ccc(OCc2nc3ccccc3c(=O)n2-c2ccc(Cl)cc2)cc1 (hydrate or solvate) [Compound 33, 5-{4-[(3-(4-Chlorophenyl)-4-oxo-3,4-dihydroquinazolin-2-yl)methoxy]benzylidene}-2-thioxothiazolidin-4-one]	121 to 123 °C
O=C1NC(=S)SC1=Cc1ccc(OCc2nc3ccccc3c(=O)n2-c2cccc(Cl)c2)cc1 (hydrate or solvate) [Compound 34, 5-{4-[(3-(3-Chlorophenyl)-4-oxo-3,4-dihydroquinazolin-2-yl)methoxy]benzylidene}-2-thioxothiazolidin-4-one]	237 to 239 °C
O=C1NC(=S)SC1=Cc1ccc(OCc2nc3ccccc3c(=O)n2-c2ccc(Br)cc2)cc1 (hydrate or solvate) [Compound 35, 5-{4-[(3-(4-Bromophenyl)-4-oxo-3,4-dihydroquinazolin-2-yl)methoxy]benzylidene}-2-thioxothiazolidin-4-one]	171 to 174 °C
O=C1NC(=S)SC1=Cc1ccc(OCc2nc3ccccc3c(=O)n2-c2cccc(Br)c2)cc1 (hydrate or solvate) [Compound 36, 5-{4-[(3-(3-Bromophenyl)-4-oxo-3,4-dihydroquinazolin-2-yl)methoxy]benzylidene}-2-thioxothiazolidin-4-one]	252 to 254 °C
O=C1NC(=S)SC1=Cc1ccc(OCc2nc3ccccc3c(=O)n2-c2ccc(C(F)(F)F)cc2)cc1 (hydrate or solvate) [Compound 37, 5-{4-[(3-(4-Trifluoromethylphenyl)-4-oxo-3,4-dihydroquinazolin-2-yl)methoxy]benzylidene}-2-thioxothiazolidin-4-one]	153 to 155 °C
Cc1ccc(-n2c(COc3ccc(C=C4SC(=S)NC4=O)cc3)nc3ccccc3c2=O)cc1 (hydrate or solvate) [Compound 38, 5-{4-[(3-(4-Methylphenyl)-4-oxo-3,4-dihydroquinazolin-2-yl)methoxy]benzylidene}-2-thioxothiazolidin-4-one]	148 to 150 °C
COc1cc(C=C2SC(=S)NC2=O)ccc1OCc1nc2ccccc2c(=O)n1-c1ccccc1 (hydrate or solvate) [Compound 41, 5-{4-[(3-Phenyl-4-oxo-3,4-dihydroquinazolin-2-yl)methoxy]-3-methoxybenzylidene}-2-thioxothiazolidin-4-one]	243 to 246 °C
COc1cc(C=C2SC(=S)NC2=O)ccc1OCc1nc2ccccc2c(=O)n1-c1ccc(Cl)cc1 (hydrate or solvate) [Compound 43, 5-{4-[(3-(4-Chlorophenyl)-4-oxo-3,4-dihydroquinazolin-2-yl)methoxy]-3-methoxybenzylidene}-2-thioxothiazolidin-4-one]	239 to 241 °C
COc1cc(C=C2SC(=S)NC2=O)ccc1OCc1nc2ccccc2c(=O)n1-c1ccc(Br)cc1 (hydrate or solvate) [Compound 45, 5-{4-[(3-(4-Bromophenyl)-4-oxo-3,4-dihydroquinazolin-2-yl)methoxy]-3-methoxybenzylidene}-2-thioxothiazolidin-4-one]	214 to 217 °C
COc1cc(C=C2SC(=S)NC2=O)ccc1OCc1nc2ccccc2c(=O)n1-c1cccc(Br)c1 (hydrate or solvate) [Compound 46, 5-{4-[(3-(3-Bromophenyl)-4-oxo-3,4-dihydroquinazolin-2-yl)methoxy]-3-methoxybenzylidene}-2-thioxothiazolidin-4-one]	243 to 245 °C
COc1cc(C=C2SC(=S)NC2=O)ccc1OCc1nc2ccccc2c(=O)n1-c1ccc(C)cc1 (hydrate or solvate) [Compound 48, 5-{4-[(3-(4-Methylphenyl)-4-oxo-3,4-dihydroquinazolin-2-yl)methoxy]-3-methoxybenzylidene}-2-thioxothiazolidin-4-one]	172 to 175 °C
COc1cc(C=C2SC(=S)NC2=O)ccc1OCc1nc2ccccc2c(=O)n1-c1cccc(C)c1 (hydrate or solvate) [Compound 49, 5-{4-[(3-(3-Methylphenyl)-4-oxo-3,4-dihydroquinazolin-2-yl)methoxy]-3-methoxybenzylidene}-2-thioxothiazolidin-4-one]	154 to 156 °C
COc1ccc(-n2c(COc3ccc(C=C4SC(=S)NC4=O)cc3OC)nc3ccccc3c2=O)cc1 (hydrate or solvate) [Compound 50, 5-{4-[(3-(4-Methoxyphenyl)-4-oxo-3,4-dihydroquinazolin-2-yl)methoxy]-3-methoxybenzylidene}-2-thioxothiazolidin-4-one]	148 to 150 °C
O=C1NC(=S)SC1=Cc1ccc(OCc2nc3ccccc3c(=O)n2-c2ccccc2)cc1 [Compound 31, 5-{4-[(3-Phenyl-4-oxo-3,4-dihydroquinazolin-2-yl)methoxy]benzylidene}-2-thioxothiazolidin-4-one]	230 to 232 °C
Cc1cccc(-n2c(COc3ccc(C=C4SC(=S)NC4=O)cc3)nc3ccccc3c2=O)c1 [Compound 39, 5-{4-[(3-(3-Methylphenyl)-4-oxo-3,4-dihydroquinazolin-2yl)methoxy]benzylidene}-2-thioxothiazolidin-4-one]	165 to 168 °C
